# Data: patent US20220296595A1, “CDK INHIBITORS” (QILU REGOR THERAPEUTICS INC., priority 2019, published 2022)
# Like-named read-outs stand apart in the source and are kept apart here.
# Key:
# [1] = target: T1, CDK4/CyclinD1 (Homo sapiens, UniProt P11802); assay: Assay for inhibition of CDK4/CyclinD1 (Caliper microfluidic kinase assay); format: biochemical
# T1 construct: purchased Thermofisher PR8064A
# In short: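 Caliper microfluidic mobility-shift assay tracking phosphorylation of 1 μM FL-34 peptide by 1 nM CDK4/CyclinD1 with 200 μM ATP in HEPES pH 7.5 buffer with 10 mM MgCl2. Reaction ran 3 h at room temperature, was stopped with EDTA, and IC50 came from a 4-parameter sigmoidal fit.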
# [2] = target: T2, CDK6/CyclinD3 (Homo sapiens, UniProt Q00534); assay: Assay for inhibition of CDK6/CyclinD3 (Caliper microfluidic kinase assay); format: biochemical
# T2 construct: purchased Carna 04-107
# In short: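 Caliper mobility-shift readout of FAM-labelled peptide (FL-34, 1 μM) phosphorylation by 2 nM CDK6/CyclinD3 at 300 μM ATP in HEPES pH 7.5 buffer with MgCl2, DTT; 3 h at room temperature, EDTA stop. IC50 from 4-parameter sigmoidal fit.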
# [3] = target: T3, CDK2/CyclinE1 (Homo sapiens, UniProt P24941); assay: Assay for inhibition of CDK2/CyclinE1 (Caliper microfluidic kinase assay); format: biochemical; details: read-out: CDK2 IC50
# T3 construct: purchased SignalChem C29-18G
# In short: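 Caliper microfluidic mobility-shift assay: 5 nM CDK2/CyclinE1, 100 μM ATP, 5 μM FL-18 peptide (5-FAM-QSPKKG-NH2) in pH 7.5 HEPES buffer with MgCl2, DTT, BSA, Triton X-100. Incubated 3 hours at room temperature, EDTA-stopped; IC50 from 4-parameter sigmoidal fit.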
# [4] = system: T47D breast cancer cells; assay: Anti-proliferation assay in T47D cell (Cyquant, day 6); format: cell-based, human; details: Homo sapiens, T47D, anti-proliferation, T47D cells; read-out: T47D IC50
# In short: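 Cells were grown in RPMI 1640 with 10% FBS at 37 °C and dosed the day after plating at ten concentrations, 10 μM to 0.51 nM in 3-fold steps. CyQuant fluorescence (ex 485/em 535 nm) was read on day 6. IC50 was fitted from baseline-subtracted viability curves, with the baseline read after overnight culture.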
# [5] = system: phosphorylation of Retinoblastoma Protein (pRb Ser807/811 or Ser780) in T47D cells; assay: Inhibition of phosphorylation of retinoblastoma protein (pRb) in T47D cell (ELISA); format: cell-based, human; details: Homo sapiens, T47D, read-out: Phospho T47D Ser807 IC50, pRb Ser807 phosphorylation, T47D cells
# In short: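 T47D cells in RPMI 1640 + 10% FBS, adhered overnight, then treated 24 h with 3-fold compound titrations (top concentration […]). Lysates assayed by sandwich ELISA for pRb Ser807/811 or Ser780 with HRP/TMB detection. IC50 from 4-parameter sigmoidal fit.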
# T2 sequence (Q00534 whole entry): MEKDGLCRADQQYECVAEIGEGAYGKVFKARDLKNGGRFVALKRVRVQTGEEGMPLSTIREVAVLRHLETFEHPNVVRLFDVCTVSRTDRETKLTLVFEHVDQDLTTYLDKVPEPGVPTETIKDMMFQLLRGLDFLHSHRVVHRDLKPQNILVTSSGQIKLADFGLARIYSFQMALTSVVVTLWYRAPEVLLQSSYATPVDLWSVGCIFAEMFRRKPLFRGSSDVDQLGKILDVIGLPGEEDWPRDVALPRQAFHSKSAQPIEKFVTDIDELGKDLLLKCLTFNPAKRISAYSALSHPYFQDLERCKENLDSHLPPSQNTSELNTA
# T2 sequence (P30281 whole entry partner): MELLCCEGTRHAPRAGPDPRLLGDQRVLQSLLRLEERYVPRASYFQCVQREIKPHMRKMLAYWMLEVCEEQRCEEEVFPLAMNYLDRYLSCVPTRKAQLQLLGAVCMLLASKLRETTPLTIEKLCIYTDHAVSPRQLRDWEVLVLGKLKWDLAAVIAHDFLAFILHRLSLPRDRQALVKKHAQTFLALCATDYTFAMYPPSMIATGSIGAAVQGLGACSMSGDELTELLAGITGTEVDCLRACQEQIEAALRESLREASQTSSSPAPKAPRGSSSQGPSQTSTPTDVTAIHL
# T1 sequence (P11802 whole entry): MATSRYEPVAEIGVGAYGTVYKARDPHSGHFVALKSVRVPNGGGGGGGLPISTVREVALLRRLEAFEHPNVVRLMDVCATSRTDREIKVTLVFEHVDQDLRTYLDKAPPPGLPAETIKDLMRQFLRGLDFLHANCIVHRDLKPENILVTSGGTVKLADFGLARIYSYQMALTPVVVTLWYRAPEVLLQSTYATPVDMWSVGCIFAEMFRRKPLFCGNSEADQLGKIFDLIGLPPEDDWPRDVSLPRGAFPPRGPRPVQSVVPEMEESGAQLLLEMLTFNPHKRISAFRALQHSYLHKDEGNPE
# T1 sequence (P24385 whole entry partner): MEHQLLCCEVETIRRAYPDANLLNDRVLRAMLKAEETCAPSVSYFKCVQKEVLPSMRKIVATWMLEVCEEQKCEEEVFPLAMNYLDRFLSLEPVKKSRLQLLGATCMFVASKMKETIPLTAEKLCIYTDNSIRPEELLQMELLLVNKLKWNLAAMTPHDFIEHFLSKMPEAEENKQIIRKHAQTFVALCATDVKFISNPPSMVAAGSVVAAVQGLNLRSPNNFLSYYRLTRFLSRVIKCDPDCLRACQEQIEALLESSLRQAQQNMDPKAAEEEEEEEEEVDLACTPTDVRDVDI
Compound,"IC50 ([1]; CDK4/CyclinD1, 200 μM ATP) [nM]","IC50 ([2]; CDK6/CyclinD3, 300 μM ATP) [nM]","IC50 ([3]; CDK2/CyclinE1, 100 μM ATP) [nM]",IC50 [4] [nM],IC50 [5] [nM],IC50 ([1]; CDK4/CyclinD1) [nM],IC50 ([2]; CDK6/CyclinD3) [nM],IC50 ([3]; CDK2/CyclinE1) [nM]
CC(C)n1cnc2c(F)nc(-c3ccnc(Nc4ccc(N5CC6CC5CN6)cn4)n3)cc21 (stereo not drawn) [compound 272],< 10,10 to 100,100 to 1000,< 100,< 100,,,
CC(C)n1cnc2c(F)nc(-c3ccnc(Nc4ccc(N5CCNCC5=O)cn4)n3)cc21 [compound 273],< 10,10 to 100,10 to 100,< 100,< 100,,,
Cc1nc2c(F)nc(-c3ccnc(Nc4ccc(N5CCNCC5=O)cn4)n3)cc2n1C(C)C [compound 276],< 10,< 10,10 to 100,< 100,< 100,,,
CC(C)n1cnc2c(F)nc(-c3nc(Nc4ccc(N5CCC(N(C)C)CC5=O)cn4)ncc3Cl)cc21 (stereo not drawn) [compound 278],< 10,10 to 100,100 to 1000,< 100,< 100,,,
Cc1cnc(Nc2ccc(N3CCC(N(C)C)CC3=O)cn2)nc1-c1cc2c(ncn2C(C)C)c(F)n1 (stereo not drawn) [compound 279],< 10,10 to 100,100 to 1000,< 100,< 100,,,
CC(C)n1cnc2c(F)nc(-c3ccnc(Nc4ccc(N5CCC(C)(N)CC5=O)cc4)n3)cc21 (stereo not drawn) [compound 280],< 10,< 10,< 10,< 100,< 100,,,
CC(C)n1cnc2c(F)nc(-c3ccnc(Nc4ccc(N5CCC(N(C)C)CC5=O)cc4)n3)cc21 (stereo not drawn) [compound 281],< 10,< 10,< 10,< 100,< 100,,,
CC(C)n1cnc2c(F)nc(-c3ccnc(Nc4ccc(N5CCCNC5=O)cc4)n3)cc21 [compound 282],< 10,< 10,< 10,< 100,< 100,,,
CC(C)n1cnc2c(F)nc(-c3ccnc(Nc4ccc(N5CCCC(N(C)C)C5=O)cn4)n3)cc21 (stereo not drawn) [compound 283],< 10,< 10,> 1000,< 100,< 100,,,
CCN1CCN(Cc2ccc(Nc3nccc(-c4cc5c(ncn5C(C)C)c(F)n4)n3)nc2)CC1 [compound 285],< 10,10 to 100,> 1000,< 100,< 100,,,
CC(C)n1cnc2c(F)nc(-c3ccnc(Nc4ccc(N5CCNCC5)cn4)n3)cc21 [compound 286],< 10,10 to 100,100 to 1000,< 100,< 100,,,
CC(C)n1cnc2c(F)nc(-c3ccnc(Nc4ccc(N5CCCC(N)C5=O)cc4)n3)cc21 (stereo not drawn) [compound 293],< 10,< 10,10 to 100,< 100,< 100,,,
CCN1CC2CC1CN2c1ccc(Nc2nccc(-c3cc4c(ncn4C(C)C)c(OC)n3)n2)nc1 (stereo not drawn) [compound 312],,,,100 to 500,< 100,< 10,10 to 100,> 1000
COc1nc(-c2ccnc(Nc3ccc(N4CCC(N5CCC5)CC4=O)cn3)n2)cc2c1ncn2C(C)C (stereo not drawn) [compound 314],,,,< 100,< 100,< 10,10 to 100,10 to 100
COc1nc(-c2ccnc(Nc3ccc(N4CCC(N5CC(F)(F)C5)CC4=O)cn3)n2)cc2c1ncn2C(C)C (stereo not drawn) [compound 315],,,,100 to 500,< 100,< 10,10 to 100,100 to 1000
